Reference: patent US20220033407A1, “N-(pyridin-2-ylsulfonyl)cyclopropanecarboxamide Derivatives and their Use in the Treatment of Disease” (NOVARTIS AG, priority 2018, published 2022)

Legend:
[1] = target: T1, delF508-CFTR (Homo sapiens, UniProt P13569, DEL508-508); assay: delF508-CFTR functional activity in primary human bronchial epithelial cells (HBECs), Multi-Transepithelial Clamp Circuit (MTECC-24) assay, equivalent short circuit current; type: cell-based; details: primary CF HBECs; for MTECC24 CFHBEC-Amax %: relative to reference combination 2 μM 3-(6-(1-(2,2-difluorobenzo[d][1,3]dioxol-5-yl)cyclopropane-1-carboxamido)-3-methylpyridin-2-yl)benzoic acid (24 h) + 0.5 μM N-(2,4-di-tert-butyl-5-hydroxyphenyl)-4-oxo-1,4-dihydroquinoline-3-carboxamide; for EC50: test compound added 24 h before assay, potentiator (S)-3-amino-6-methoxy-N-(3,3,3-trifluoro-2-hydroxy-2-methylpropyl)-5-(trifluoromethyl)picolinamide present at assay, mean of at least two replicates, read-out: MTECC24 CFHBEC-EC50
T1 construct: functional activity of the CFTR channel (Chloride ion transport) in patient derived primary human bronchial epithelial cells; host or cells: patient-derived primary human bronchial epithelial cells (HBECs), delF508-CFTR
T1 sequence (P13569 with tags, fused parts or gaps DEL508-508): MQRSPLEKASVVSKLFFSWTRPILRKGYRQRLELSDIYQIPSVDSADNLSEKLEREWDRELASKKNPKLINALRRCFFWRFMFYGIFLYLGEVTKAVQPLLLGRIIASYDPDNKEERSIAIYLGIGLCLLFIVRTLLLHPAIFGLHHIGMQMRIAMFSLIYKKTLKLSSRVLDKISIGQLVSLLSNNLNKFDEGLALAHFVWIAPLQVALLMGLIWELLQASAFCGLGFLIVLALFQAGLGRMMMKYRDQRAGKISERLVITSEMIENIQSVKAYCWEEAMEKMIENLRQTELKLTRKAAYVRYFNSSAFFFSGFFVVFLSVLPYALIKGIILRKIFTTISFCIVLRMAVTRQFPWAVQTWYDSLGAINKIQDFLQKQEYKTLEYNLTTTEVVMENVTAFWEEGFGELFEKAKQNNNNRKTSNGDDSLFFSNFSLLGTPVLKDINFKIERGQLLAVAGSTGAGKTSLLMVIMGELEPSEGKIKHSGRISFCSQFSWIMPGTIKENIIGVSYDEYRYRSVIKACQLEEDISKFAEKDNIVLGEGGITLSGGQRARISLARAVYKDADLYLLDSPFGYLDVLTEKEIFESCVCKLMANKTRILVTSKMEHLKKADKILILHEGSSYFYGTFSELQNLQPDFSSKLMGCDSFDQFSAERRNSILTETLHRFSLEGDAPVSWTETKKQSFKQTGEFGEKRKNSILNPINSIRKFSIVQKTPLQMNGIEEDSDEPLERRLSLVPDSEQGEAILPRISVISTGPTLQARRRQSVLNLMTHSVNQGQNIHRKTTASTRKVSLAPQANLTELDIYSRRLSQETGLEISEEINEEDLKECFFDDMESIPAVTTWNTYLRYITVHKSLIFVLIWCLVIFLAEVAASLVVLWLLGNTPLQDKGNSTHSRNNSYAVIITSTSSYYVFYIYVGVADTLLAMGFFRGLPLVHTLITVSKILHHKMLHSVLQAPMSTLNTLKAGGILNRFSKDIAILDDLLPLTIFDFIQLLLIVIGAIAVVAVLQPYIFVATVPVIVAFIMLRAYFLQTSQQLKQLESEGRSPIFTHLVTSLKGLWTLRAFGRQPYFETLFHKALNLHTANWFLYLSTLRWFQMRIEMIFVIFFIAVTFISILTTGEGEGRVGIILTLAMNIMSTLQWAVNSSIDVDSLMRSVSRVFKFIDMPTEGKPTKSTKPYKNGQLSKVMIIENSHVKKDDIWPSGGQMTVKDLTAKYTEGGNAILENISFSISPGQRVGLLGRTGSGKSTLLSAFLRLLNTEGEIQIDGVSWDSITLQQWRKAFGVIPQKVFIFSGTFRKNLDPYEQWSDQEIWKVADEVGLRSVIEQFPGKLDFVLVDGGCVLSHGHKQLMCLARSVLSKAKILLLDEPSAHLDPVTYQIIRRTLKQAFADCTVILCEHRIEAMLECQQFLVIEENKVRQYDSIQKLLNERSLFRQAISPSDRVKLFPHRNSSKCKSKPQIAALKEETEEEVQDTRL
In short: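 Patient-derived delF508 HBECs, grown at air-liquid interface about two weeks, were corrected with compound basolaterally for 24 h. Compound was then re-added apically and basolaterally in HEPES pH7.4 assay medium, with sequential modulators including forskolin and the picolinamide potentiator. Ieq was recorded, normalised to 0.1% DMSO wells, and EC50 fitted from 10-point curves.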

[2] = target: T2, delF508-CFTR-HRP (Homo sapiens, UniProt P13569, DEL508-508); assay: Measurement of delF508-CFTR-HRP surface expression in CFBE41o- cells (HRP luminescence); type: cell-based; details: for Emax: CFBE41o-, read-out: DelF508-CFTR-HRP Amax %; for EC50: mean of at least two replicates;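 as to DelF508-CFTR-HRP Amax %: percent efficacy relative to a reference CFTR corrector compound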
T2 construct: expressed in transfected cells
T2 sequence (P13569 with tags, fused parts or gaps DEL508-508): as above
In short: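 Stably transfected CFBE41o- cells carrying HRP in the fourth extracellular loop of delF508-CFTR, induced with 500 ng/mL doxycycline for 48 h, then compound-treated 24 h at 37° C (10-point, 3-fold, top 10 μM). Surface HRP detected by luminescent substrate; EC50 from logistic fit, triplicates, normalized to lowest-concentration median.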

SMILES | MTECC24 CFHBEC-Amax % [1] [%] | EC50 [1] [µM] | Emax [2] [%] | EC50 [2] [µM]
O=C(NS(=O)(=O)c1cccc(N2CC(O)C2)n1)C1(Oc2cc(Cl)ccc2C2CCCCC2)CC1 [Example 2-57, 1-(5-Chloro-2-cyclohexylphenoxy)-N-((6-(3-hydroxyazetidin-1-yl)pyridin-2-yl)sulfonyl)cyclopropane-1-carboxamide] | 102 | 0.012 | 328 | 3.08
O=C(NS(=O)(=O)c1cccc(N2CCC(O)CC2)n1)C1(Oc2cc(Cl)ccc2C2CC3(CCC3)C2)CC1 [Example 7-11, 1-(5-Chloro-2-(spiro[3.3]heptan-2-yl)phenoxy)-N-((6-(4-hydroxypiperidin-1-yl)pyridin-2-yl)sulfonyl)cyclopropane-1-carboxamide] | 154.0 | 0.197 | 446 | 1.26
Cc1ccc(-c2cccc(C(F)F)c2)c(OC2(C(=O)NS(=O)(=O)c3cccc(N4CC[C@H](O)C4)n3)CC2)c1 [Example 5-9, (S)-1-((3′-(Difluoromethyl)-4-methyl-[1,1′-biphenyl]-2-yl)oxy)-N-] | 87 | 0.076 | 298 | 3.11
Cc1ccc(C2CCCCC2)c(OC2(C(=O)NS(=O)(=O)c3cccc(NCC(C)O)n3)CC2)c1 (stereo not shown) [Example 2-45, 1-(2-Cyclohexyl-5-methylphenoxy)-N-((6-((2-hydroxypropyl)amino)pyridin-2-yl)sulfonyl)cyclopropane-1-carboxamide] | 95 | 0.006 | 816 | 2.23

The remaining compounds from weak to strong by EC50 [1], led by results:

MTECC24 CFHBEC-Amax % [1] [%] | EC50 [1] [µM] | Emax [2] [%] | EC50 [2] [µM] | SMILES
34 | 0.568 | 134 | 4.67 | Cc1ccc(C)c(OC2(C(=O)NS(=O)(=O)c3cccc(N4CCOC[C@@H]4C)n3)CC2)c1 [Example 4-2, (S)-1-(2,5-Dimethylphenoxy)-N-((6-(3-methylmorpholino)pyridin-2-yl)sulfonyl)cyclopropane-1-carboxamide]
103.9 | 0.08 | 462 | 0.75 | CC1(C)CCN(c2ccc(Cl)cc2OC2(C(=O)NS(=O)(=O)c3cccc(N4CCC(O)(C(C)(C)C)CC4)n3)CC2)CC1 [Example 10-6, N-((6-(4-(tert-butyl)-4-hydroxypiperidin-1-yl)pyridin-2-yl)sulfonyl)-1-(5-chloro-2-(4,4-dimethylpiperidin-1-yl)phenoxy)cyclopropanecarboxamide]
57 | 0.057 | 380 | 2.66 | Cc1ccc(C2CCC(F)(F)CC2)c(OC2(C(=O)NS(=O)(=O)c3cccc(N4CC(C)(NC(=O)OC(C)(C)C)C4)n3)CC2)c1 [Example 3-6, Tert-butyl (1-(6-(N-(1-(2-(4,4-difluorocyclohexyl)-5-methylphenoxy)cyclopropane-1-carbonyl)sulfamoyl)pyridin-2-yl)-3-methylazetidin-3-yl)carbamate]
91 | 0.015 | 421 | 2.01 | Cc1ccc(C2CCCCC2)c(OC2(C(=O)NS(=O)(=O)c3cccc(N)n3)CC2)c1 [Example 1-1, N-((6-Aminopyridin-2-yl)sulfonyl)-1-(2-cyclohexyl-5-methylphenoxy)cyclopropane-1-carboxamide]
78 | 0.008 | 604 | 1.53 | Cc1ccc(C2CCCCC2)c(OC2(C(=O)NS(=O)(=O)c3cccc(N4CCCC(NC(=O)OC(C)(C)C)C4)n3)CC2)c1 (stereo not shown) [Example 2-12, Tert-butyl (1-(6-(N-(1-(2-cyclohexyl-5-methylphenoxy)cyclopropanecarbonyl)sulfamoyl)pyridin-2-yl)piperidin-3-yl)carbamate]
67 | 0.002 | 383 | 1.8 | [2H]C1([2H])OC([2H])([2H])C([2H])([2H])N(c2cccc(S(=O)(=O)NC(=O)C3(Oc4cc(C)ccc4C4CCCCC4)CC3)n2)C1([2H])[2H] [Example 2-39, 1-(2-Cyclohexyl-5-methylphenoxy)-N-((6-(morpholino-d8)pyridin-2-yl)sulfonyl)cyclopropane-1-carboxamide]
